Assay results: US20100316573A1, “Organic Compounds” (priority 2006, published 2010)

Test system: TNFα mRNA in SKOV-3 cells
Assay: TNFα mRNA induction in SKOV-3 cells (FIG. 2), fold increase relative to untreated cells
Experimental: Each of the tumor cell lines indicated was treated for 18 hrs with 1 uM of the Compound II. mRNA was harvested using Qiagen's TurboCapture mRNA isolation kit. cDNA was synthesized using BioRad iScript cDNA synthesis kit. Primers specific for the cDNA encoding TNFalpha were then used to PCR amplify TNF cDNA from each sample using Applied. Biosystems TaqMan Universal PCR Master Mix. Data is normalized to B-Actin mRNA and expressed as relative levels of TNF mRNA.
The graph depicting TNF induction by compound II includes nine bars correlating to the fold increase of TNF relative to untreated cells.

SMILES: CC[C@@H](c1cncc(C(=O)c2ccc(F)cc2)c1)N(CC)C(=O)[C@@H](NC(=O)[C@H](C)NC)C1CCCCC1 [Compound III]
- induction of TNFα mRNA (in words): induce TNFα mRNA in SKOV-3 cells in a dose dependent manner
- fold increase of TNF relative to untreated cells (100 nM compound + PI (MG132)): 15-20 fold increase
- fold increase of TNF relative to untreated cells (100 nM compound + ZVAD): 85-95 fold increase
- fold increase of TNF relative to untreated cells (100 nM compound alone): 85-95 fold increase
- fold increase of TNF relative to untreated cells (1000 nM compound + PI (MG132)): 30-40 fold increase
- fold increase of TNF relative to untreated cells (1000 nM compound + ZVAD): 75-80 fold increase
- fold increase of TNF relative to untreated cells (1000 nM compound + sTNFR (soluble TNFα receptor)): 0-1 fold increase
- fold increase of TNF relative to untreated cells (1000 nM compound alone): 105-115 fold increase
- fold increase of TNF relative to untreated cells (100 nm compound + sTNFR (soluble TNFα receptor)): 0-3 fold increase
